{"source": "patent US10322995B2", "about": "“Substituted cyano cycloalkyl penta-2,4-dienes, cyano cycloalkyl pent-2-en-4-ynes, cyano heterocyclyl penta-2,4-dienes and cyano heterocyclyl pent-2-en-4-ynes as active substances against abiotic plant stress” (BAYER CROPSCIENCE AKTIENGESELLSCHAFT, priority 2014, dated 2019)", "key": {"Zea mays (ZEAMX)": {"tested_on": "Zea mays (ZEAMX)", "experiment": "In vivo analyses Part A: drought stress, visual damage scoring, efficacy EF (ZEAMX)", "details": "spray application 250 g/ha, efficacy = reduction in damage intensity", "procedure": "Seeds of monocotyledonous and dicotyledonous crop plants were sown in sandy loam in wood-fibre pots, covered with soil or sand and cultivated in a greenhouse under good growth conditions. The test plants were treated at the early leaf stage (BBCH10-BBCH13). To assure uniform water supply before commencement of stress, the potted plants were supplied with water by dam irrigation prior to substance application. The inventive compounds, formulated in the form of wettable powders (WP), were sprayed onto the green parts of the plants as an aqueous suspension at an equivalent water application rate of 600 I/ha with addition of 0.2% wetting agent (e.g. agrotin). Substance application was followed immediately by stress treatment of the plants. For this purpose, the pots were transferred in plastic inserts in order to prevent them from subsequently drying out too quickly. Drought stress was induced by gradual drying out under the following conditions: “Day”: 14 hours with illumination at 26° C. “Night”: 10 hours without illumination at 18° C. The duration of the respective stress phases was guided mainly by the condition of the stressed control plants. […] Once this juncture was reached, the intensities of damage were scored visually in comparison to untreated, unstressed controls of the same age. The damage intensity was at first assessed in percent. […]"}, "Brassica napus (BRSNS)": {"tested_on": "Brassica napus (BRSNS)", "experiment": "In vivo analyses Part C: drought stress, appearance vs stressed control plants in categories (BRSNS)", "design": "key: 0: no positive effect; 10: slight positive effect; 20: clear positive effect; 30: strong positive effect", "details": "appearance vs stressed control plants after recovery phase, efficacy range of 3-4 pots", "procedure": "Seeds of monocotyledonous and dicotyledonous crop plants were sown in sandy loam in plastic or wood-fibre pots, covered with soil or sand and cultivated in a greenhouse under good growth conditions. The test plants were treated at the early leaf stage (BBCH10-BBCH13). To assure uniform water supply before commencement of stress, the potted plants were supplied with water by dam irrigation prior to substance application. The inventive compounds were first formulated as wettable powders (WP) or dissolved in a solvent mixture. The further dilution was effected with water supplemented with 0.2% wetting agent (e.g. agrotin). The finished spray liquor was sprayed onto the green parts of the plant at an equivalent water application rate of 600 I/ha. Substance application was followed immediately by stress treatment of the plants. For this purpose, the wood-fibre pots were transferred in plastic inserts in order to prevent them from subsequently drying out too quickly. Drought stress was induced by gradual drying out under the following conditions: “Day”: 14 hours with illumination at 26-30° C. “Night”: 10 hours without illumination at 18-20° C. The duration of the respective stress phases was guided mainly by the condition of the stressed control plants. It was ended (by re-irrigating and transfer to a greenhouse with good growth conditions) as soon as irreversible damage was observed on the stressed control plants. The end of the stress phase was followed by an about 4-7-day recovery phase, during which the plants were once again kept under good growth conditions in a greenhouse. The duration of the recovery phase was guided mainly by when the trial plants had attained a state which enabled visual scoring of potential effects, and was therefore variable. Once this juncture had been reached, the appearance of the plants treated with test substances was recorded in comparison to the stressed control plants by the following categories: [table] For each substance and dosage, 3-4 pots were treated and evaluated. BRSNS=Brassica napus"}}, "data": [{"smiles": "CCOC(=O)/C=C(/C)C#CC(O)(C(C)C)C1(C#N)CC1", "note": "(stereo not drawn) [I.1-136]", "values": [{"measurement": "EF [%] (ZEAMX)", "setting": "Zea mays (ZEAMX)", "value": ">5", "unit": "%"}]}, {"smiles": "CC/C(C#CC(O)(C1CCC1)C1(C#N)CC1)=C/C(=O)OC", "note": "(stereo not drawn) [I.1-648]", "values": [{"measurement": "Effect (BRSNS)", "setting": "Brassica napus (BRSNS); dosage 25 g/ha", "value": 30}]}, {"smiles": "CCC(C=CC(O)(c1ccccc1)C1(C#N)CC1)=CC(=O)O", "note": "(racemic) [I.2-201]", "values": [{"measurement": "Effect (BRSNS)", "setting": "Brassica napus (BRSNS); dosage 250 g/ha", "value": "10-30"}]}]}
